The source of these data is patent publication US10160755B2 (Plexxikon Inc., priority 2015, dated 2018).

SMILES strings stand for the structures.

For this test, the target named is T1, FLT3-ITD (Homo sapiens, UniProt P36888).
T1 construct: FLT3-ITD; Invitrogen #PV6190
T1 sequence (P36888 1-993): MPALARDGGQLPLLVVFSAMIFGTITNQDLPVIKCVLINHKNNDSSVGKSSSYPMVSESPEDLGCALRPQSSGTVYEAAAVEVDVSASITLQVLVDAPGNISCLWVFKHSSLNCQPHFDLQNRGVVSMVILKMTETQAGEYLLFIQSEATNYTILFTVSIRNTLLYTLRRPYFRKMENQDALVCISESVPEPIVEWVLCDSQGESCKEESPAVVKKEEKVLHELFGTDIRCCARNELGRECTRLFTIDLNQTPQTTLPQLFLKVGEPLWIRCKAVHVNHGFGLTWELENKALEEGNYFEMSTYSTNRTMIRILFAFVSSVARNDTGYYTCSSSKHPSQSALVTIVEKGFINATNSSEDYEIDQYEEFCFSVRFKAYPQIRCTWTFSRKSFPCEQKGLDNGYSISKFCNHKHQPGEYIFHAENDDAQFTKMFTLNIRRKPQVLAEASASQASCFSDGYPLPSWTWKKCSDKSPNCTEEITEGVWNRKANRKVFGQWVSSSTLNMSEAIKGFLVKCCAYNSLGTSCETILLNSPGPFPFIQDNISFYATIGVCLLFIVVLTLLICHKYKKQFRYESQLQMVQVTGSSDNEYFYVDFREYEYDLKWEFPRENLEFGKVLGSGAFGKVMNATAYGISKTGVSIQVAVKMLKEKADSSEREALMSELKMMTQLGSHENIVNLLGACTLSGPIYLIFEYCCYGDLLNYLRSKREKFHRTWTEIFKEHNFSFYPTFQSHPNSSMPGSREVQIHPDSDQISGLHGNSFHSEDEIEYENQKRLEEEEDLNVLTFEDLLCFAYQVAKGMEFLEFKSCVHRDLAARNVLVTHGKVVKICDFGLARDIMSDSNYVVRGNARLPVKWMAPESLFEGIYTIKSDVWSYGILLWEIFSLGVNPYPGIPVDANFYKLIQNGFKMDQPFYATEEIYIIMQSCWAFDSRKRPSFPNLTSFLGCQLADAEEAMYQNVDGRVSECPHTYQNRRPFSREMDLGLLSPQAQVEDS
As to the kind of experiment: FLT3-ITD biochemical kinase assay (AlphaScreen). In short, it runs like this:
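IC50 values reflect loss of AlphaScreen proximity signal (excitation 680 nm, emission 580 nm) from tyrosine phosphorylation of a biotinylated poly(Glu4-Tyr) substrate at 30 nM. ATP was 10 μM for the D835Y mutant and 100 μM for ITD. Detection used PY20 acceptor beads.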
For orientation: In Alpha technology, singlet oxygen from a donor bead excites a nearby acceptor bead.

Take `FC(F)(F)Oc1cccc(-c2cnc3[nH]cc(-c4ccc5ncn(C6CCCNC6)c5c4)c3n2)c1` (centres unmarked) [P-193, 7-[3-(3-piperidyl)benzimidazol-5-yl]-2-[3-(trifluoromethoxy)phenyl]-5H-pyrrolo[2,3-b]pyrazine]: the IC50 – broadly, the concentration at which inhibition is half-maximal – was in the range of 0.0001 to 1 µM.

In turn, `Cn1cnc2ccc(-c3c[nH]c4ncc(-c5cnn(CC(F)(F)F)c5)cc34)cc21` [P-175, 1-methyl-6-[5-[1-(2,2,2-trifluoroethyl)pyrazol-4-yl]-1H-pyrrolo[2,3-b]pyridin-3-yl]benzimidazole] displayed an IC50 of 0.0001 to 1 µM.

`COc1ncc(-c2cnc3[nH]cc(-c4ccc5ncn(C(C)(C)C)c5c4)c3c2)cn1` [P-265, 1-(tert-butyl)-6-(5-(2-methoxypyrimidin-5-yl)-1H-pyrrolo[2,3-b]pyridin-3-yl)-1H-benzo[d]imidazole] registered an IC50 of 0.0001 to 1 µM.

As to `N#Cc1cccc(NC(=O)c2cnc3[nH]cc(-c4ccc5ncn(C6CCCNC6)c5c4)c3c2)c1` (centres unmarked) [P-219, N-(3-cyanophenyl)-3-(1-(piperidin-3-yl)-1H-benzo[d]imidazol-6-yl)-1H-pyrrolo[2,3-b]pyridine-5-carboxamide], the IC50 is 0.0001 to 1 µM.

In turn, `c1cc(N2CCOCC2)ccc1-c1cnc2[nH]cc(-c3ccc4ncn(C5CCCNC5)c4c3)c2n1` (centres unmarked) [P-101, 4-[4-[7-[3-(3-piperidyl)benzimidazol-5-yl]-5H-pyrrolo[2,3-b]pyrazin-2-yl]phenyl]morpholine] displayed an IC50 of 0.0001 to 1 µM.

The compound `COc1cc(-c2cnc3[nH]cc(-c4ccc5ncn([C@@H]6CCCNC6)c5c4)c3n2)ccn1` [P-254, 2-(2-methoxy-4-pyridyl)-7-[3-[(3R)-3-piperidyl]benzimidazol-5-yl]-5H-pyrrolo[2,3-b]pyrazine] displayed a half-maximal inhibitory concentration (IC50) of 0.0001 to 1 µM.

For the compound `c1cc(-c2cnc3[nH]cc(-c4ccc5ncn(C6CCCNC6)c5c4)c3c2)cc(N2CCOCC2)n1` (centres unmarked) [P-223, 4-[4-[3-[3-(3-piperidyl)benzimidazol-5-yl]-1H-pyrrolo[2,3-b]pyridin-5-yl]-2-pyridyl]morpholine], the IC50 lay within 0.0001 to 1 µM.

As for `CCCS(=O)(=O)Nc1cccc(-c2cnc3[nH]cc(-c4ccc5ncn(C(C)(C)C)c5c4)c3n2)c1` [P-225, N-[3-[7-(3-tert-butylbenzimidazol-5-yl)-5H-pyrrolo[2,3-b]pyrazin-2-yl]phenyl]propane-1-sulfonamide], the IC50 lay in the range of 0.0001 to 1 µM.

`CC(C)(C)n1cnc2ccc(-c3c[nH]c4ncc(C(=O)Nc5cccc(C#N)c5)cc34)cc21` [P-218, 3-(3-tert-butylbenzimidazol-5-yl)-N-(3-cyanophenyl)-1H-pyrrolo[2,3-b]pyridine-5-carboxamide] gave an IC50 of 0.0001 to 1 µM.

As for `N#Cc1cccc(C(=O)Nc2cnc3[nH]cc(-c4ccc5ncn(C6CCCNC6)c5c4)c3c2)c1` (centres unmarked) [P-236, 3-cyano-N-[3-[3-(3-piperidyl)benzimidazol-5-yl]-1H-pyrrolo[2,3-b]pyridin-5-yl]benzamide], the IC50 lay in the range of 0.0001 to 1 µM.

`CCCS(=O)(=O)Nc1cccc(-c2cnc3[nH]cc(-c4ccc5ncn(C(C)(C)C)c5c4)c3c2)c1` [P-216, N-[3-[3-(3-tert-butylbenzimidazol-5-yl)-1H-pyrrolo[2,3-b]pyridin-5-yl]phenyl]propane-1-sulfonamide] registered an IC50 of 0.0001 to 1 µM.

Compound `CC(C)(C)n1cnc2ccc(-c3c[nH]c4ncc(-c5cccc(S(=O)(=O)N6CCCC6)c5)nc34)cc21` [P-229, 7-(3-tert-butylbenzimidazol-5-yl)-2-(3-pyrrolidin-1-ylsulfonylphenyl)-5H-pyrrolo[2,3-b]pyrazine] yielded an IC50 of 0.0001 to 1 µM.

The compound `CN(c1cccc(-c2cnc3[nH]cc(-c4ccc5ncn(C)c5c4)c3c2)c1)S(C)(=O)=O` [P-120, N-methyl-N-[3-[3-(3-methylbenzimidazol-5-yl)-1H-pyrrolo[2,3-b]pyridin-5-yl]phenyl]methanesulfonamide] showed an IC50 of 0.0001 to 1 µM.

On to `O=S1(=O)CCCCN1c1cccc(-c2cnc3[nH]cc(-c4ccc5ncn(C6CCCNC6)c5c4)c3c2)c1` (centres unmarked) [P-224, 2-[3-[3-[3-(3-piperidyl)benzimidazol-5-yl]-1H-pyrrolo[2,3-b]pyridin-5-yl]phenyl]thiazinane 1,1-dioxide], for which the concentration for half-maximal inhibition (IC50) lay in the range of 0.0001 to 1 µM.

Compound `COc1cnc2[nH]cc(-c3ccc4ncn(-c5ccc(F)c(C)c5)c4c3)c2c1` [P-129, 1-(4-fluoro-3-methyl-phenyl)-6-(5-methoxy-1H-pyrrolo[2,3-b]pyridin-3-yl)benzimidazole] gave an IC50 of 0.0001 to 1 µM.

Consider `COc1cc(-c2cnc3[nH]cc(-c4ccc5ncn(C6CCCNC6)c5c4)c3n2)cc(OC)n1` (centres unmarked) [P-195, 2-(2,6-dimethoxy-4-pyridyl)-7-[3-(3-piperidyl)benzimidazol-5-yl]-5H-pyrrolo[2,3-b]pyrazine], for which the IC50 is 0.0001 to 1 µM.

The compound `CN(c1cccc(-c2cnc3[nH]cc(-c4ccc5ncn(C)c5c4)c3n2)c1)S(C)(=O)=O` [P-150, N-methyl-N-[3-[7-(3-methylbenzimidazol-5-yl)-5H-pyrrolo[2,3-b]pyrazin-2-yl]phenyl]methanesulfonamide] returned a 50% inhibitory concentration (IC50) of 0.0001 to 1 µM.

The compound `O=S(=O)(c1cccc(-c2cnc3[nH]cc(-c4ccc5ncn(C6CCCNC6)c5c4)c3c2)c1)N1CCCC1` (centres unmarked) [P-222, 1-(3-piperidyl)-6-[5-(3-pyrrolidin-1-ylsulfonylphenyl)-1H-pyrrolo[2,3-b]pyridin-3-yl]benzimidazole] came in with an IC50 of 0.0001 to 1 µM.

`CC(C)(C)n1cnc2ccc(-c3c[nH]c4ncc(-c5cccc(N6CCCCS6(=O)=O)c5)nc34)cc21` [P-227, 2-[3-[7-(3-tert-butylbenzimidazol-5-yl)-5H-pyrrolo[2,3-b]pyrazin-2-yl]phenyl]thiazinane 1,1-dioxide] displayed an IC50 of 0.0001 to 1 µM.

`CC(C)(C)n1cnc2ccc(-c3c[nH]c4ncc(-c5cccc(NS(C)(=O)=O)c5)nc34)cc21` [P-097, N-[3-[7-(3-tert-butylbenzimidazol-5-yl)-5H-pyrrolo[2,3-b]pyrazin-2-yl]phenyl]methanesulfonamide] showed an IC50 of 0.0001 to 1 µM.

With `COc1cnc2[nH]cc(-c3ccc4ncn(-c5ccc(F)cc5)c4c3)c2c1` [P-103, 1-(4-fluorophenyl)-6-(5-methoxy-1H-pyrrolo[2,3-b]pyridin-3-yl)benzimidazole], the IC50 was in the range of 0.0001 to 1 µM.

In turn, `CC(C)(C)n1cnc2ccc(-c3c[nH]c4ncc(-c5ccc(F)c(C#N)c5)nc34)cc21` [P-230, 5-[7-(3-tert-butylbenzimidazol-5-yl)-5H-pyrrolo[2,3-b]pyrazin-2-yl]-2-fluoro-benzonitrile] displayed a half-inhibitory concentration (IC50) of 0.0001 to 1 µM.

Compound `CC(C)(C)n1cnc2ccc(-c3c[nH]c4ncc(C#Cc5cccc(OC(F)(F)F)c5)nc34)cc21` [P-249, 7-(3-tert-butylbenzimidazol-5-yl)-2-[2-[3-(trifluoromethoxy)phenyl]ethynyl]-5H-pyrrolo[2,3-b]pyrazine] registered an IC50 of 0.0001 to 1 µM.

`COc1cc(C(=O)Nc2cnc3[nH]cc(-c4ccc5ncn(C6CCCNC6)c5c4)c3c2)ccn1` (centres unmarked) [P-247, 2-methoxy-N-[3-[3-(3-piperidyl)benzimidazol-5-yl]-1H-pyrrolo[2,3-b]pyridin-5-yl]pyridine-4-carboxamide] gave a concentration for half-maximal inhibition (IC50) of 0.0001 to 1 µM.

Take `CC(C)(C)n1cnc2ccc(-c3c[nH]c4ncc(-c5cnn(CC(F)(F)F)c5)nc34)cc21` [P-256, 7-(3-tert-butylbenzimidazol-5-yl)-2-[1-(2,2,2-trifluoroethyl)pyrazol-4-yl]-5H-pyrrolo[2,3-b]pyrazine]: the IC50 fell in the range of 0.0001 to 1 µM.

The compound `CC(C)(C)n1cnc2ccc(-c3c[nH]c4ncc(-c5cnn(C(F)F)c5)cc34)cc21` [P-251, 1-tert-butyl-6-[5-[1-(difluoromethyl)pyrazol-4-yl]-1H-pyrrolo[2,3-b]pyridin-3-yl]benzimidazole] returned a concentration for half-maximal inhibition (IC50) of 0.0001 to 1 µM.

`O=S(=O)(c1cccc(-c2cnc3[nH]cc(-c4ccc5ncn(C6CCCNC6)c5c4)c3n2)c1)N1CCCC1` (centres unmarked) [P-237, 7-[3-(3-piperidyl)benzimidazol-5-yl]-2-(3-pyrrolidin-1-ylsulfonylphenyl)-5H-pyrrolo[2,3-b]pyrazine] had an IC50 of 0.0001 to 1 µM.

Take `CC(C)(CO)n1cnc2ccc(-c3c[nH]c4ncc(-c5cccc(NS(C)(=O)=O)c5)nc34)cc21` [P-115, N-[3-[7-[3-(2-hydroxy-1,1-dimethyl-ethyl)benzimidazol-5-yl]-5H-pyrrolo[2,3-b]pyrazin-2-yl]phenyl]methanesulfonamide]: the IC50 was in the range of 0.0001 to 1 µM.

For the compound `CCCS(=O)(=O)Nc1cccc(-c2cnc3[nH]cc(-c4ccc5ncn(C6CCCNC6)c5c4)c3c2)c1` (centres unmarked) [P-217, N-[3-[3-[3-(3-piperidyl)benzimidazol-5-yl]-1H-pyrrolo[2,3-b]pyridin-5-yl]phenyl]propane-1-sulfonamide], the IC50 fell in the range of 0.0001 to 1 µM.
